The target in this experiment is full-length human PIKFYVE (GST-PIKFYVE) (Homo sapiens (Human), UniProt Q9Y2I7, L932S/Q1183K/Q995L/S1033A/S696N/T998S). In words: PIKfyve biochemical assay (ADP-Glo Kinase assay, Carna Biosciences). From the text: PIKfyve Biochemical Assay. The biochemical PIKFyve inhibition assays were run by Carna Biosciences according to proprietary methodology based on the Promega ADP-Glo™ Kinase assay. A full-length human PIKFYVE [1-2098(end) amino acids and S696N, L932S, Q995L, T998S, S1033A and Q1183K of the protein having the sequence set forth in NCBI Reference Sequence No. NP_055855.2] was expressed as N-terminal GST-fusion protein (265 kDa) using baculovirus expression system. GST-PIKFYVE was purified by using glutathione sepharose chromatography and used in an ADP-Glo™ Kinase assay (Promega). Reactions were set up by adding the test compound solution, substrate solution, ATP solution and kinase solution, each at 4× final concentrations. Reactions were prepared with assay buffer (50 mM MOPS, 1 mM DTT, pH7.2), mixed, and incubated in black 384 well polystyrene plates for 1 hour at room temperature. ADP-Glo™ reagent was then added for 40 minutes, followed by kinase detection reagent for an additional 40 minutes. The kinase activity was evaluated by detecting relative light units on a luminescence plate reader. Samples were run in duplicate from 10 μM to 3 nM. […] IC50 values were calculated from concentration vs % inhibition curves by fitting to a four-parameter logistic curve.
The biochemical PIKFyve inhibition assays were run by Carna Biosciences according to proprietary methodology based on the Promega ADP-Glo™ Kinase assay. A full-length human PIKFYVE [1-2098(end) amino acids and S696N, L932S, Q995L, T998S, S1033A and Q1183K of accession number NP_055855.2] was expressed as N-terminal GST-fusion protein (265 kDa) using baculovirus expression system. GST-PIKFYVE was purified by using glutathione sepharose chromatography and used in an ADP-Glo™ Kinase assay (Promega).
Reactions were set up by adding the test compound solution, substrate solution, ATP solution and kinase solution, each at 4× final concentrations. Reactions were prepared with assay buffer (50 mM MOPS, 1 mM DTT, pH7.2), mixed, and incubated in black 384 well polystyrene plates for 1 hour at room temperature. ADP-Glo™ reagent was then added for 40 minutes, followed by kinase detection reagent for an additional 40 minutes. The kinase activity was evaluated by detecting relative light units on a luminescence plate reader. Samples were run in duplicate from 10 uM to 3 nM. […] IC50 values were calculated from concentration vs % inhibition curves by fitting to a four-parameter logistic curve.
(In general: ADP-Glo first removes unused ATP, then detects ADP through luciferase.)

Setting [1] is: ADP-Glo, full-length human PIKFYVE, read-out: hPIKfyve IC50.
[2] abbreviates: values plotted in FIG. 7, read-out: PIKFYVE Biochemistry (IC50).

SMILES strings stand for the structures. Read-outs that look alike come from different tables or passages of the source. Some results are limits rather than exact numbers.

Chain of full-length human PIKFYVE (GST-PIKFYVE) (Q9Y2I7 whole entry S696N/L932S/Q995L/T998S/S1033A/Q1183K, the tested form may be a part): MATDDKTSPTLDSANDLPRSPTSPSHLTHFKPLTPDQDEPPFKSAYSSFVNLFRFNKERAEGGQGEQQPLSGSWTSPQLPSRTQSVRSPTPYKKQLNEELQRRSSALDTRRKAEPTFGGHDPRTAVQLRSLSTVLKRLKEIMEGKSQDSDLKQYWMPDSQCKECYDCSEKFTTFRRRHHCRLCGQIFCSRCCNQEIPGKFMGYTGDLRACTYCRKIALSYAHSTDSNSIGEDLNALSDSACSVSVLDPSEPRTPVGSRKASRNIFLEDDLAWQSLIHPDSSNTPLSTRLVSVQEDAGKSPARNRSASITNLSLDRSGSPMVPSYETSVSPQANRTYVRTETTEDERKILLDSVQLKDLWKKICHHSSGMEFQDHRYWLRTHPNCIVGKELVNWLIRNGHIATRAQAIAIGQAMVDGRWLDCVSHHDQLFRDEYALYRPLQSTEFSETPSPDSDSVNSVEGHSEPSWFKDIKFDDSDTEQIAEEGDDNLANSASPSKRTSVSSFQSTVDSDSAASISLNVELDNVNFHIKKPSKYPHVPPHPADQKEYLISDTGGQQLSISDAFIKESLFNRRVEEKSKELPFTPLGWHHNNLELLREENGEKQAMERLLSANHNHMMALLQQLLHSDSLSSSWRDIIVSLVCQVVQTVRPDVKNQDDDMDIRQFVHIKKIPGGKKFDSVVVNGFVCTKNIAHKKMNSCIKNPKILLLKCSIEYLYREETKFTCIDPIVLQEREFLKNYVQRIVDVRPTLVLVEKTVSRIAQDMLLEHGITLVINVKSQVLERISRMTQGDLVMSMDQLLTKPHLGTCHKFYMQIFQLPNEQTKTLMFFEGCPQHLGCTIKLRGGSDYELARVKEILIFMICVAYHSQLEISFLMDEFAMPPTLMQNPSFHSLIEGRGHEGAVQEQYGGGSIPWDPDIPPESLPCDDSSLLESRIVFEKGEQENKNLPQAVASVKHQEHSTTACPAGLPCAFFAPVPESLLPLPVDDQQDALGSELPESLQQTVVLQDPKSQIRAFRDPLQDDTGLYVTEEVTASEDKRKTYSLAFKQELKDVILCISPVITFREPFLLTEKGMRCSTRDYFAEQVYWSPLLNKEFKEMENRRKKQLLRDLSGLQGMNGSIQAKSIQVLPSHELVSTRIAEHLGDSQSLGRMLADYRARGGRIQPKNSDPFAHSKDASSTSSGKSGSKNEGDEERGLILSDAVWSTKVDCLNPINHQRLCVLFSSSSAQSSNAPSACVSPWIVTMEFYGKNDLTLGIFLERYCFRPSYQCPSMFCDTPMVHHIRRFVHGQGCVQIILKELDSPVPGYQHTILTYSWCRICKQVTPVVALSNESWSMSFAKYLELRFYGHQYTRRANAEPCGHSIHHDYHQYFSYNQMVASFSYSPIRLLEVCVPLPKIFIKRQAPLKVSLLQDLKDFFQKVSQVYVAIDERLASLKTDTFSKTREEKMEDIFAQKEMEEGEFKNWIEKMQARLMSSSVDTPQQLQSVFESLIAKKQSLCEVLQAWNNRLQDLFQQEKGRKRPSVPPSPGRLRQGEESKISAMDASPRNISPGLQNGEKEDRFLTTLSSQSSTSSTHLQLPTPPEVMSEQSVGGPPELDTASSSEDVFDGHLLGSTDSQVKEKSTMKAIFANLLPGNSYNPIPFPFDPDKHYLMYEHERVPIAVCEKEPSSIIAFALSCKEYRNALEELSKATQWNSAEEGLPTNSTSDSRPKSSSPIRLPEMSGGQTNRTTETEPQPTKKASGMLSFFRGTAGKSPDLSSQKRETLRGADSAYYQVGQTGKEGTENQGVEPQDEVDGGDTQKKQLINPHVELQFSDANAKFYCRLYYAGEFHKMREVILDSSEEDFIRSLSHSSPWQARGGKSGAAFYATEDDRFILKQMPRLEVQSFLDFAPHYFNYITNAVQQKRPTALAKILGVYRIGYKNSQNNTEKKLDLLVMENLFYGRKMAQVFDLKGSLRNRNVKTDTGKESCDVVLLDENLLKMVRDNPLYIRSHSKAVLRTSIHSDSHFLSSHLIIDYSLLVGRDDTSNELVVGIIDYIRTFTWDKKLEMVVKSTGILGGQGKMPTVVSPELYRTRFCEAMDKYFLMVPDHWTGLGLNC

A word on the IC50: it is the concentration at which inhibition is half-maximal. As for `Cc1cccc(CCNc2nc(N3CCOCC3)c3ncc(Cc4cccnc4)cc3n2)c1` [compound 78], the IC50 under setting [1] was in the range of 100 to 1000 nM.

In the case of `O=c1ccn(Cc2nc(N3CCOCC3)cc(-n3nccc3-c3ccccc3)n2)cc1`, the IC50 under setting [2] is over 10000 nM.

Consider `c1ccc(-c2nc(-c3cc(N4CCOCC4)nc(OCc4ccncc4)n3)no2)cc1`, for which the IC50 under setting [2] was over 10000 nM.

As to `CCC(=O)N1CCC(c2ccn(-c3nc(N4CCOCC4)c4ncccc4n3)n2)CC1` [compound 1, 1-[4-[1-(4-morpholinopyrido[3,2-d]pyrimidin-2-yl)pyrazol-3-yl]-1-piperidyl]propan-1-one], under setting [1], the half-inhibitory concentration (IC50) was in the range of 1000 to 10000 nM.

As for `c1cnc2c(N3CCOCC3)nc(-c3ccnc(N4CCNCC4)n3)nc2c1` [compound 34, 4-[2-(2-piperazin-1-ylpyrimidin-4-yl)pyrido[3,2-d]pyrimidin-4-yl]morpholine], under setting [1], the IC50 lay within 1000 to 10000 nM.

Regarding `Cc1cccc(CCNc2nc(N3CCOCC3)c3ncc(C(O)c4cccnc4)cc3n2)c1` (centres unmarked) [compound 76], the IC50 under setting [1] was 100 to 1000 nM.

Regarding `Cn1c(-c2ccccc2)nn(-c2nc(N3CCOCC3)c3ncccc3n2)c1=O` [compound 32, 4-methyl-2-(4-morpholinopyrido[3,2-d]pyrimidin-2-yl)-5-phenyl-1,2,4-triazol-3-one], the concentration for half-maximal inhibition (IC50) under setting [1] was in the range of 1000 to 10000 nM.

As for `CCc1cnc2c(N3CCOCC3)nc(-n3ccc(-c4ccncc4)n3)nc2c1` [compound 14, 4-(7-Ethyl-2-(3-(pyridin-4-yl)-1H-pyrazol-1-yl)pyrido[3,2-d]pyrimidin-4-yl)morpholine], under setting [1], the 50% inhibitory concentration (IC50) was in the range of 1000 to 10000 nM.

For `Cc1cccc(CCNc2nc(N3CCOCC3)c3ncc(C(=O)c4cccnc4)cc3n2)c1` [compound 77], the IC50 under setting [1] lay within 100 to 1000 nM.

Take `c1cnc2c(N3CCOCC3)nc(-n3ccc(C4CCCNC4)n3)nc2c1` (centres unmarked) [compound 48]: the IC50 under setting [1] fell in the range of 1000 to 10000 nM.

With `c1cnc2c(N3CCOCC3)nc(-n3ccc(C4CCOCC4)n3)nc2c1` [compound 45, 4-(2-(3-(tetrahydro-2H-pyran-4-yl)-1H-pyrazol-1-yl)pyrido[3,2-d]pyrimidin-4-yl)morpholine], the IC50 under setting [1] was in the range of 1000 to 10000 nM.

Turning to `Oc1cc(-c2ccccc2)nn1-c1nc(N2CCOCC2)c2ncccc2n1` [compound 27, 1-(4-morpholinopyrido[3,2-d]pyrimidin-2-yl)-3-phenyl-1H-pyrazol-5-ol], the IC50 under setting [1] was in the range of 10 to 100 nM.

On to `c1cnc2c(N3CCOCC3)nc(-c3ccnc(C4CCNCC4)n3)nc2c1` [compound 37, 4-[2-[2-(4-piperidyl)pyrimidin-4-yl]pyrido[3,2-d]pyrimidin-4-yl]morpholine], for which, under setting [1], the IC50 is 1000 to 10000 nM.

In the case of `c1cncc(-c2ccn(-c3nc(N4CCOCC4)c4ncccc4n3)n2)c1` [compound 11, 4-(2-(3-(pyridin-3-yl)-1H-pyrazol-1-yl)pyrido[3,2-d]pyrimidin-4-yl)morpholine], the IC50 under setting [1] fell in the range of 100 to 1000 nM.

For the compound `c1coc(-c2nc(N3CCOCC3)c3ncccc3n2)c1` [compound 74], under setting [1], the IC50 lay in the range of 100 to 1000 nM.

Regarding `Fc1cccc(Nc2nc(N3CCOCC3)c3ncc(Cc4cccnc4)cc3n2)c1` [compound 83], the half-maximal inhibitory concentration (IC50) under setting [1] fell in the range of 1000 to 10000 nM.

Consider `c1ccc(Oc2nc(N3CCOCC3)c3ncc(-c4ccco4)cc3n2)cc1` [compound 16, 4-(7-(furan-2-yl)-2-phenoxypyrido[3,2-d]pyrimidin-4-yl)morpholine], for which the IC50 under setting [1] was over 10000 nM.

Turning to `CC(C)(C)OC(=O)N1CC=C(c2ccn(-c3nc(N4CCOCC4)c4ncccc4n3)n2)CC1` [compound 3, tert-butyl 4-[1-(4-morpholinopyrido[3,2-d]pyrimidin-2-yl)pyrazol-3-yl]-3,6-dihydro-2H-pyridine-1-carboxylate], the IC50 under setting [1] lay within 1000 to 10000 nM.

On to `c1ccc2nn(-c3nc(N4CCOCC4)c4ncccc4n3)cc2c1` [compound 7, 4-(2-indazol-2-ylpyrido[3,2-d]pyrimidin-4-yl)morpholine], for which the IC50 under setting [1] was 100 to 1000 nM.

As to `c1cnc2c(N3CCOCC3)nc(-c3ccnc(N4CCOCC4)n3)nc2c1` [compound 51, 4-[4-(4-morpholinopyrido[3,2-d]pyrimidin-2-yl)pyrimidin-2-yl]morpholine], the IC50 under setting [1] lay within 1000 to 10000 nM.

With `c1ccc(-c2ccn(-c3nc(N4CCOCC4)c4cnccc4n3)n2)cc1` [compound 46, 4-(2-(3-phenyl-1H-pyrazol-1-yl)pyrido[4,3-d]pyrimidin-4-yl)morpholine], the IC50 under setting [1] was in the range of 1000 to 10000 nM.

For the compound `CC(C)(C)OC(=O)N1CCC(c2ccn(-c3nc(N4CCOCC4)c4ncccc4n3)n2)CC1` [compound 5, tert-butyl 4-[1-(4-morpholinopyrido[3,2-d]pyrimidin-2-yl)pyrazol-3-yl]piperidine-1-carboxylate], the half-inhibitory concentration (IC50) under setting [1] lay within 1000 to 10000 nM.

For `CN1CCC(c2nccc(-c3nc(N4CCOCC4)c4ncccc4n3)n2)CC1` [compound 38, 4-[2-[2-(1-methyl-4-piperidyl)pyrimidin-4-yl]pyrido[3,2-d]pyrimidin-4-yl]morpholine], the half-inhibitory concentration (IC50) under setting [1] fell in the range of 1000 to 10000 nM.

`c1ccc(-c2ccn(-c3nc(N4CCOCC4)c4ncccc4n3)n2)nc1` [compound 12, 4-(2-(3-(pyridin-2-yl)-1H-pyrazol-1-yl)pyrido[3,2-d]pyrimidin-4-yl)morpholine]: the IC50 under setting [1] was in the range of 10 to 100 nM.

In the case of `O=c1c(CCOc2cccnc2)cc2ncncc2n1-c1ccccc1`, the IC50 under setting [2] was over 10000 nM.

Turning to `O=C1N(c2ccccc2)CCN1c1nc(N2CCOCC2)c2ncccc2n1` [compound 29, 1-(4-morpholinopyrido[3,2-d]pyrimidin-2-yl)-3-phenyl-imidazolidin-2-one], the IC50 under setting [1] was in the range of 1000 to 10000 nM.

For the compound `c1cnc2c(N3CCOCC3)nc(-n3ccc(-c4ccncc4)n3)nc2c1` [compound 10, 4-(2-(3-(pyridin-4-yl)-1H-pyrazol-1-yl)pyrido[3,2-d]pyrimidin-4-yl)morpholine], the IC50 under setting [1] lay in the range of 100 to 1000 nM.

For the compound `c1cncc(Cc2nc(N3CCOCC3)c3ncccc3n2)c1` [compound 72], the IC50 under setting [1] fell in the range of 10 to 100 nM.

Consider `c1cnc2c(N3CCOCC3)nc(-n3ccc(-c4cncnc4)n3)nc2c1` [compound 2, 4-[2-(3-pyrimidin-5-ylpyrazol-1-yl)pyrido[3,2-d]pyrimidin-4-yl]morpholine], for which the IC50 under setting [1] lay in the range of 1000 to 10000 nM.

For the compound `c1ccc(Oc2nc(N3CCOCC3)c3ncc(C4CCCO4)cc3n2)cc1` (centres unmarked) [compound 88], the IC50 under setting [1] was in the range of 1000 to 10000 nM.

On to `c1ccc(Nc2nc(N3CCOCC3)c3ncc(C4CCCO4)cc3n2)cc1` (centres unmarked) [compound 87], for which the IC50 under setting [1] fell in the range of 100 to 1000 nM.

Regarding `Clc1nc(N2CCOCC2)c2ncc(Cc3cccnc3)cc2n1` [compound 82], the IC50 under setting [1] lay in the range of 1000 to 10000 nM.

Turning to `CC(C)(C)OC(=O)N1CCN(c2nccc(-c3nc(N4CCOCC4)c4ncccc4n3)n2)CC1` [compound 55, tert-butyl 4-[4-(4-morpholinopyrido[3,2-d]pyrimidin-2-yl)pyrimidin-2-yl]piperazine-1-carboxylate], the IC50 under setting [1] lay within 1000 to 10000 nM.

As for `CC(C)(C)OC(=O)N1CCCC(c2ccn(-c3nc(N4CCOCC4)c4ncccc4n3)n2)C1` (centres unmarked) [compound 6, tert-butyl 3-(1-(4-morpholinopyrido[3,2-d]pyrimidin-2-yl)-1H-pyrazol-3-yl)piperidine-1-carboxylate], the IC50 under setting [1] fell in the range of 1000 to 10000 nM.

In the case of `Oc1cc(-c2ccccc2)nn1-c1nc(N2CCOCC2)c2cccnc2n1` [compound 25, 2-(4-morpholinopyrido[2,3-d]pyrimidin-2-yl)-5-phenyl-2,4-dihydro-3H-pyrazol-3-one], the IC50 under setting [1] was 1000 to 10000 nM.

In the case of `O=C(c1cccnc1)c1nc(N2CCOCC2)c2ncccc2n1` [compound 73], the IC50 under setting [1] fell in the range of 100 to 1000 nM.

`c1cncc(Oc2nc(N3CCOCC3)c3ncccc3n2)c1` [compound 75]: under setting [1], the 50% inhibitory concentration (IC50) fell in the range of 10 to 100 nM.

Regarding `O=C1N(c2cccc(F)c2)CCN1c1nc(N2CCOCC2)c2ncccc2n1` [compound 28, 1-(3-fluorophenyl)-3-(4-morpholinopyrido[3,2-d]pyrimidin-2-yl)imidazolidin-2-one], the IC50 under setting [1] lay within 1000 to 10000 nM.

Regarding `O=C1N(c2nc(N3CCOCC3)c3ncccc3n2)CCN1C1CCCC1` [compound 30, 1-cyclopentyl-3-(4-morpholinopyrido[3,2-d]pyrimidin-2-yl)imidazolidin-2-one], the IC50 under setting [1] was in the range of 1000 to 10000 nM.

Regarding `c1ccc(-c2ccn(-c3nc(N4CCOCC4)c4ncc(C5CCCOC5)cc4n3)n2)cc1` (centres unmarked) [compound 19, 4-(2-(3-Phenyl-1H-pyrazol-1-yl)-7-(tetrahydro-2H-pyran-3-yl)pyrido[3,2-d]pyrimidin-4-yl)morpholine], the IC50 under setting [1] was 10 to 100 nM.

In the case of `CC(C)(C)OC(=O)N1CCC(c2nccc(-c3nc(N4CCOCC4)c4ncccc4n3)n2)CC1` [compound 33, tert-butyl 4-[4-(4-morpholinopyrido[3,2-d]pyrimidin-2-yl)pyrimidin-2-yl]piperidine-1-carboxylate], under setting [1], the IC50 was in the range of 1000 to 10000 nM.
